What was measured:
KDR(h) = KDR(h) (Homo sapiens, UniProt P35968); assay: Kinase assay, KDR(h); type: biochemical
Method: (§1) Kinase assay protocols well known to those of ordinary skill in the art were used. Specifically, the buffer composition was as follows: 20 mM MOPS, 1 mM EDTA, 0.01% Brij-35, 5% Glycerol, 0.1% β-mercaptoethanol, 1 mg/mL BSA. Test compounds were initially dissolved in DMSO at the desired concentration, then serially diluted to the kinase assay buffer. In a final reaction volume of 25 μL FGFR1(h) (5-10 mU) and KDR(h) (5-10 mU) are incubated with 8 mM MOPS pH 7.0, 0.2 mM EDTA, 200 μM LRRASLG (Kemptide), 10 mM magnesium acetate and [γ^33P-ATP]. The reaction was initiated by the addition of the MgATP mix. After incubation for 40 minutes at room temperature, the reaction was stopped by addition of 5 μL of a 3% phosphoric acid solution. Ten L of the reaction was then spotted onto a P30 filter mat and washed three times for 5 minutes in 50 mM phosphoric acid and once in methanol prior to drying and scintillation counting. Wells containing substrate but no kinase and wells containing a phosphopeptide control were used to set 0% and 100% phosphorylation value, respectively.
Of all of the steps in developing a drug, the hardest is finding promising compounds. (See, e.g., Malo et al., “Statistical practice in high-throughput screening data analysis,” Nature Biotechnology, 2006, 24, 167-75.) Kinase inhibitors often also have an anti-proliferative effect. […] The kinase inhibitory activity Compound 19 was tested using the kinase assay described in Example 3. […] These mutations in the tested kinases are thought to play an important role in transformation of some cancers.

KG1a = assay: Inhibition of proliferation (CellTiterblue, 72 hr), KG1a; type: cell-based, human
Method: (§2) A number of studies were performed to analyze the consequences of tyrosine kinase inhibition in cell lines. To do this, 1000 cells are seeded in 27 μl/well in 384-well microplates, which are then placed in a humidified CO2 incubator at 37° C. overnight. The next day, 3 μl/well of 10× concentrated drug is added and the plates are returned to the incubator for 72 hr. After 72 hr incubation, plates are removed and 6 μl/well CellTiterblue (Promega) viability reagent is added. Plates are returned to the incubator for 3 hrs, after which fluorescence measurements are read on the Victor X3 plate reader (Perkin Elmer). Data are analyzed using Excel (Microsoft), and GI50 values are determined using Prism (Graphpad).

SNU16 = assay: Inhibition of proliferation (CellTiterblue, 72 hr), SNU16; type: cell-based; conditions: Homo sapiens, SNU-16, 72 h
Method: as §2

Kato III = assay: Inhibition of proliferation (CellTiterblue, 72 hr), Kato III; type: cell-based; conditions: Homo sapiens, KATO III, 72 h
Method: as §2

RT112 = assay: Inhibition of proliferation (CellTiterblue, 72 hr), RT112; type: cell-based; conditions: Homo sapiens, RT-112, 72 h
Method: as §2

FGFR1(V561M)(h) = FGFR1(V561M)(h) (Homo sapiens, UniProt P11362, V561M); assay: Kinase assay, FGFR1(V561M)(h); type: biochemical
Method: as §1
Of all of the steps in developing a drug, the hardest is finding promising compounds. (See, e.g., Malo et al., “Statistical practice in high-throughput screening data analysis,” Nature Biotechnology, 2006, 24, 167-75.) Kinase inhibitors often also have an anti-proliferative effect. […]

FGFR3(h) = FGFR3(h) (Homo sapiens, UniProt P22607); assay: Kinase assay, FGFR3(h); type: biochemical
FGFR4(h) = FGFR4(h) (Homo sapiens, UniProt P22455); assay: Kinase assay, FGFR4(h); type: biochemical
Chain of FGFR4(h) (P22455 22-802): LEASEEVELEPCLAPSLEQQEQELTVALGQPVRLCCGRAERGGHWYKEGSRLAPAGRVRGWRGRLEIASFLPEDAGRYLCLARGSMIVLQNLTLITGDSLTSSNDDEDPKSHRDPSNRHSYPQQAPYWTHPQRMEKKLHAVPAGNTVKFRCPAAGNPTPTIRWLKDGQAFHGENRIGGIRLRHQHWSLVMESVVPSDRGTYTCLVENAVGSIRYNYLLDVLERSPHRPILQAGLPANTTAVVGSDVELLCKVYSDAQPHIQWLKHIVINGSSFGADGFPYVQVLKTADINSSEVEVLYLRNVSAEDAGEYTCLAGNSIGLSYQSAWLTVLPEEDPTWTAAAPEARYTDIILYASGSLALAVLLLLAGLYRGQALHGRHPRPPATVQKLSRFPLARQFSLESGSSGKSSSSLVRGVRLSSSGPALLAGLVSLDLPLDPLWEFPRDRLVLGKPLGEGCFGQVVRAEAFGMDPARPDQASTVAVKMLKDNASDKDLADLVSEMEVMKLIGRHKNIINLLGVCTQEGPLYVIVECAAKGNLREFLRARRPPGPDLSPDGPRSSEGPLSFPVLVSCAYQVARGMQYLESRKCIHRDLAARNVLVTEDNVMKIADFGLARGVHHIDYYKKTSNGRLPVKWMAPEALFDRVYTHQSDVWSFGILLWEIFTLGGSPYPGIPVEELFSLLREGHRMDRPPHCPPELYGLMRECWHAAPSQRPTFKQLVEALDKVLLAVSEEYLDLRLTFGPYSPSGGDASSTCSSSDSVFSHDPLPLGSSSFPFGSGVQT

Lck(h) = Lck(h) (Homo sapiens, UniProt P06239); assay: Kinase assay, Lck(h); type: biochemical
ABL(h) = ABL(h) (Homo sapiens, UniProt P00519); assay: Kinase assay, ABL(h); type: biochemical
Axl(h) = Axl(h) (Homo sapiens, UniProt P30530); assay: Kinase assay, Axl(h); type: biochemical
Chain of Axl(h) (P30530 26-894): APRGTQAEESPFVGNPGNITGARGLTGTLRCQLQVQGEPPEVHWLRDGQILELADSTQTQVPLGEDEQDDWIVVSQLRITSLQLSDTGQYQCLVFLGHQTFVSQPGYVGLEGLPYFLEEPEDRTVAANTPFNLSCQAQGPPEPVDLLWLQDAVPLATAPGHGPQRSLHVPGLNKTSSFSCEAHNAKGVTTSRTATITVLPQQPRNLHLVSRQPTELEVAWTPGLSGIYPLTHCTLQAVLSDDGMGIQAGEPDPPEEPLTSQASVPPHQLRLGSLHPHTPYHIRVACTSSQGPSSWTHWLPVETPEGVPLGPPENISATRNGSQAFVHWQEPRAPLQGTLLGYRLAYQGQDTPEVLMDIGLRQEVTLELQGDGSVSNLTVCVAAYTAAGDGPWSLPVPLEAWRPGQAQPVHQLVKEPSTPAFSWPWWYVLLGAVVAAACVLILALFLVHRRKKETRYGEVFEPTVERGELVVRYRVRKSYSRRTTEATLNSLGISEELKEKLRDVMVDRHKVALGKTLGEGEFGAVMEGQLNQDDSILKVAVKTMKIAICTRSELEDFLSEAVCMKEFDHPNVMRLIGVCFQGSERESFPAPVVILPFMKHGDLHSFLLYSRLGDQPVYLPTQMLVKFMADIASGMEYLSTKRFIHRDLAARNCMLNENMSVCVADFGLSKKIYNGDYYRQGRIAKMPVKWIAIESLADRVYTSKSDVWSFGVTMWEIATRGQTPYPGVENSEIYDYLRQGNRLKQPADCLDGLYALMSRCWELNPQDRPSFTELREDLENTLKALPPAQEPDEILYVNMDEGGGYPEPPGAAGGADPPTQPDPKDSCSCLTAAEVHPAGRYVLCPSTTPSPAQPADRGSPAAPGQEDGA

AJK2(h) = AJK2(h) (Homo sapiens, UniProt O60674); assay: Kinase assay, AJK2(h); type: biochemical
MEK1(h) = MEK1(h) (Homo sapiens, UniProt Q02750); assay: Kinase assay, MEK1(h); type: biochemical
Chain of MEK1(h) (Q02750 whole entry): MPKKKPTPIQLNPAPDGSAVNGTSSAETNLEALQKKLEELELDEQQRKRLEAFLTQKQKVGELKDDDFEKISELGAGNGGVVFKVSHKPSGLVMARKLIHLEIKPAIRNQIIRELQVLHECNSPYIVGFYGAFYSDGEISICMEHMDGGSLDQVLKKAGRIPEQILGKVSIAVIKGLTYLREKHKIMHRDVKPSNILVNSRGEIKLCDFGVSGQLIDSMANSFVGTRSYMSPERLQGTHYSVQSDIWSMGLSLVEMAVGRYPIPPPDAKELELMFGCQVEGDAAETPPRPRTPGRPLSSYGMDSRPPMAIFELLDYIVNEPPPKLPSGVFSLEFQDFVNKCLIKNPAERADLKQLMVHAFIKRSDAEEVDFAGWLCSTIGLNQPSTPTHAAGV

Mer(h) = Mer(h) (Homo sapiens, UniProt Q12866); assay: Kinase assay, Mer(h); type: biochemical
Tie2(h) = Tie2(h) (Homo sapiens, UniProt Q02763); assay: Kinase assay, Tie2(h); type: biochemical
Parental BaF3 cells = assay: BaF3 cell model, Parental; type: cell-based; conditions: Mus musculus, read-out: IC5o(nM) Parental
From the text: (§3) In FIG. 1 these kinases are from the fibroblast growth factor receptor class of kinases (FGFR1-FGFR4). Compound 19 kinase inhibitory activity FGFR1-FGFR4 are also depicted in Table 5.

FGFR4 = target: T1, FGFR4 (Homo sapiens, UniProt P22455); assay: BaF3 cells engineered for expression of FGFR4; type: cell-based; conditions: read-out: IC5o(nM) FGFR4
T1 construct: expressed in transfected cells; host or cells: BaF3
T1 sequence (P22455 22-802): as the sequence (P22455 22-802) above
From the text: as §3

[1] = Cellular toxicity, HepG2 cell line; type: cell-based; conditions: human, HepG2 cells
From the text: (§4) Table 9 discloses toxicity data for compound 19 from various toxicity tests well known to those of ordinary skill.

[2] = Cellular toxicity, primary human hepatocyte; type: cell-based; conditions: primary hepatocytes
From the text: as §4

[3] = In vivo acute toxicity, MTD; conditions: PO, rat
From the text: as §4

CYP450 1A2 = CYP450 1A2 (Homo sapiens, UniProt P05177); assay: CYP450 inhibition, 1A2; type: in vitro ADME
Chain of CYP450 1A2 (P05177 whole entry): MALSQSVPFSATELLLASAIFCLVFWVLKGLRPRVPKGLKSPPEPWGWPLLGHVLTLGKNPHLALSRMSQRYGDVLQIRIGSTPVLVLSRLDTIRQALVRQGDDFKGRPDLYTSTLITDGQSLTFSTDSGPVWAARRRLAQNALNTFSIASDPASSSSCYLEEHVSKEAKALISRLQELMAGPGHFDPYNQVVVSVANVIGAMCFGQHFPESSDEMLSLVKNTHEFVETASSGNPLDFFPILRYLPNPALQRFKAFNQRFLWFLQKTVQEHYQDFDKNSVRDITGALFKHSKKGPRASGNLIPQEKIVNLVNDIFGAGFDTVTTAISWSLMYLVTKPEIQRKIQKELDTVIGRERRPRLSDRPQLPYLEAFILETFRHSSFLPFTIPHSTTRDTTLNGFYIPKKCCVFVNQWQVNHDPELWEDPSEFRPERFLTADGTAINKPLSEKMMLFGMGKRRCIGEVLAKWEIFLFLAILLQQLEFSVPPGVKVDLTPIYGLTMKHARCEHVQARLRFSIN
From the text: as §4

CYP450 2C8 = CYP450 2C8 (Homo sapiens, UniProt P10632); assay: CYP450 inhibition, 2C8; type: in vitro ADME
Chain of CYP450 2C8 (P10632 whole entry): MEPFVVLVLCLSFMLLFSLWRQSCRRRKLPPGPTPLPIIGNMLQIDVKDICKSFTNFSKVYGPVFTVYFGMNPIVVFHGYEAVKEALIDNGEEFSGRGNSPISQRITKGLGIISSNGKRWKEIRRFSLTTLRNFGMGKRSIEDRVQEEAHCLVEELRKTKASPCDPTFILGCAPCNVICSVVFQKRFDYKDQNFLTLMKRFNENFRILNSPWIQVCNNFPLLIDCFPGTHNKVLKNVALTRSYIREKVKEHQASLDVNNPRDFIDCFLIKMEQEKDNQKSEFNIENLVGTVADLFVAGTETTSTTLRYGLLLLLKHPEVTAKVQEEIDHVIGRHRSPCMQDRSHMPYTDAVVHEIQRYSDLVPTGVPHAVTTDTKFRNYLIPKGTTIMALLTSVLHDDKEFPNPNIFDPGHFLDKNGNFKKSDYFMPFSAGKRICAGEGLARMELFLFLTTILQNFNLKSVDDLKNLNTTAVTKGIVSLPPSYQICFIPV
From the text: as §4

CYP450 3A4 = CYP450 3A4 (Homo sapiens, UniProt P08684); assay: CYP450 inhibition, 3A4; type: in vitro ADME
Chain of CYP450 3A4 (P08684 whole entry): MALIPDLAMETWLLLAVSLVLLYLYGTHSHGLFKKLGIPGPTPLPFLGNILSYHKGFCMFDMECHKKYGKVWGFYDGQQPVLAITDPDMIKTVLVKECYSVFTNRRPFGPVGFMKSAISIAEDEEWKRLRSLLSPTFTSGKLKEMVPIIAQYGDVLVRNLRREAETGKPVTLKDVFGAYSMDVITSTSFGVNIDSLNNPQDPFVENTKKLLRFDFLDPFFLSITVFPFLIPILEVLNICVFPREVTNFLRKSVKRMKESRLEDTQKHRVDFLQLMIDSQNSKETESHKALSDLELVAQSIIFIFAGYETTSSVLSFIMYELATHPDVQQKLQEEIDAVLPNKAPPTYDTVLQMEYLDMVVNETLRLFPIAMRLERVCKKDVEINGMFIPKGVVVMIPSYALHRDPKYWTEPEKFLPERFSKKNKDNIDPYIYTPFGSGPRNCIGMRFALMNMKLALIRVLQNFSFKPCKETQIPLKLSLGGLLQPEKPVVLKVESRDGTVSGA
From the text: as §4

nude mouse model of AML = assay: Nude mouse model of AML (FIG. 2, FIG. 3); type: in vivo

Chain of KDR(h) (P35968 20-1356): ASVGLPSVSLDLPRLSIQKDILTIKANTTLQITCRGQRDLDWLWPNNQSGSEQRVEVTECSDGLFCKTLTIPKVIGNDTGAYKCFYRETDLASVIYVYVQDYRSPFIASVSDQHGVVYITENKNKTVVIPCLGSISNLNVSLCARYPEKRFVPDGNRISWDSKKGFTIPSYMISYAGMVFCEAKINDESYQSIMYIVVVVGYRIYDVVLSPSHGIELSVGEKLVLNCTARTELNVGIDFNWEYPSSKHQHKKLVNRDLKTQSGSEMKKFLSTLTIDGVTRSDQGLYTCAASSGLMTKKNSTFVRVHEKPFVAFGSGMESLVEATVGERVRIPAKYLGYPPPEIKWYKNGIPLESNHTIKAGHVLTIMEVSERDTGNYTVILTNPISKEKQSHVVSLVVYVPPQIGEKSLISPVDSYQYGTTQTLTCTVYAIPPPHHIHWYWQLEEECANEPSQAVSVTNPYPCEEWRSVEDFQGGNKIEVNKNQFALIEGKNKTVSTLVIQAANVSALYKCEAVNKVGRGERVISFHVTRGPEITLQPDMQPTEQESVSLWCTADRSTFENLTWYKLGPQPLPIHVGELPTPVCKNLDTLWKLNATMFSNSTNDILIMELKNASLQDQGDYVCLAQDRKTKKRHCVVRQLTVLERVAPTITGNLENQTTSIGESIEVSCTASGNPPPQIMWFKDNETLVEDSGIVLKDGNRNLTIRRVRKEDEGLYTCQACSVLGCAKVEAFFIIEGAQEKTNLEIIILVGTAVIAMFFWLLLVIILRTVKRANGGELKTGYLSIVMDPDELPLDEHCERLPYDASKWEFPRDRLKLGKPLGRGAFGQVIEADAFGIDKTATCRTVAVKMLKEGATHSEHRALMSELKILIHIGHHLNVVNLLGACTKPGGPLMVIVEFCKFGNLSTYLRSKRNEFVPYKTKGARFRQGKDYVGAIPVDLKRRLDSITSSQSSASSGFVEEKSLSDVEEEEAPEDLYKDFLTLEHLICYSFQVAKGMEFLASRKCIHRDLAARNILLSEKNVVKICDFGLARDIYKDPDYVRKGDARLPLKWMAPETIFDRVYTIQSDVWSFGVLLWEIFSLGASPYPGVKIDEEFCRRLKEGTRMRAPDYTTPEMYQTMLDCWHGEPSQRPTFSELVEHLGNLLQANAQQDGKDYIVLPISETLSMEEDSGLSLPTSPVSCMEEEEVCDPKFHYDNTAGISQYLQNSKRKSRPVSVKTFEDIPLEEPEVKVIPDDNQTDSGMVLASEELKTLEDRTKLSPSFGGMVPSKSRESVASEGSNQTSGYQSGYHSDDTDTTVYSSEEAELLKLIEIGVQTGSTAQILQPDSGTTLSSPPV

Work on `Cc1cc2c(F)c(Oc3ncnc(Nc4ccc(N5C[C@@H](C)N[C@@H](C)C5)cc4)c3C#N)cc(F)c2[nH]1` [Compound 19] yielded an IC50 (KDR(h)) of 0.485 µM, an inhibition at 1 µM (KDR(h)) of 86% and a GI50 (KG1a; Homo sapiens, KG-1a, 72 hr) of 0.0002 µM. The “Anti-proliferation activity in KG1a (in words)” value (KG1a; proliferation assay of Example 2) was “especially effective”, the GI50 (SNU16) was 0.012 µM and the GI50 (Kato III) was 0.079 µM. The GI50 (RT112) was 0.066 µM, the IC50 (FGFR1(V561M)(h)) was 0.134 µM and the IC50 (FGFR3(h)) was 0.012 µM. For the same molecule, the IC50 (FGFR4(h)) was 0.012 µM, the IC50 (Lck(h)) was > 1 µM and the IC50 (ABL(h)) was > 1 µM. The IC50 (Axl(h)) was > 1 µM, the IC50 (AJK2(h)) was > 1 µM and the IC50 (MEK1(h)) was > 1 µM. For the same molecule, the IC50 (Mer(h)) was > 1 µM, the IC50 (Tie2(h)) was > 1 µM and the IC50 (Parental BaF3 cells) was 1890 nM. For the same molecule, the IC50 (FGFR4) was 92.1 nM, the CC50 [1] was 1.9 µM and the CC50 [2] was 20 µM. For the same molecule, the MTD [3] was 100 mg/kg, the IC50 (CYP450 1A2) was 72 µM and the IC50 (CYP450 2C8) was 10.6 µM. For the same molecule, the IC50 (CYP450 3A4) was 67.3 µM, the “Antitumor activity (tumor cells expansion), FIG. 2” value (nude mouse model of AML; both dosages tested) was “near complete suppression of the tumor cells expansion” and the “Animal weight as surrogate marker for toxicity, FIG. 3” value (nude mouse model of AML; vs control) was “no difference between the control and compound 19 treated animals”.
